What all share (assay type): cell-based
One assay relates to Streptococcus pneumoniae. Put plainly: MIC, agar with 5% horse blood, Streptococcus pneumoniae. The conditions noted are these: agar with 5% defibrinated horse blood, 10^4 CFU/spot, 37° C., 5% carbon dioxide, 48 hours. On the procedure:
(§1) The following results were obtained on a standard in-vitro test system. The activity is described in terms of the minimum inhibitory concentration (MIC) determined by the agar-dilution technique with an inoculum size of 10^4 CFU/spot. Typically, compounds are active in the range 0.01 to 256 μg/ml.
(§2) Streptococci and enterococci were tested on agar supplemented with 5% defibrinated horse blood, an inoculum of 10^4 CFU/spot and an incubation temperature of 37° C. in an atmosphere of 5% carbon dioxide for 48 hours—blood is required for the growth of some of the test organisms. Fastidious Gram negative organisms were tested in Mueller-Hinton broth, supplemented with hemin and NAD, grown aerobically for 24 hours at 37° C., and with an innoculum of 5×10^4 CFU/well.

For assay [1], the system named is Staphylococcus aureus MRQR (methicillin resistant and quinolone resistant). As to the kind of experiment: MIC, agar-dilution, Staphylococcus aureus MRQR. Conditions: inoculum 10^4 CFU/spot, 37° C., 24 hours. The method, then: as §1
(§3) Staphylococci were tested on agar, using an inoculum of 10^4 CFU/spot and an incubation temperature of 37° C. for 24 hours—standard test conditions for the expression of methicillin resistance.

For a further assay, the system named is Moraxella catarrhalis. As to the kind of experiment: MIC, Mueller-Hinton broth, Moraxella catarrhalis. Conditions: Mueller-Hinton broth with hemin and NAD, aerobic, 24 hours, 37° C., 5×10^4 CFU/well. On the procedure: as §1, §2
The next assay relates to Streptococcus pyogenes. Put plainly: MIC, agar with 5% horse blood, Streptococcus pyogenes. The conditions noted are these: agar with 5% defibrinated horse blood, 10^4 CFU/spot, 37° C., 5% carbon dioxide, 48 hours. On the procedure:
as §1, §2

In assay [2] the test system is Staphylococcus aureus MSQS (methicillin sensitive and quinolone sensitive). Put plainly: MIC, agar-dilution, Staphylococcus aureus MSQS. Conditions: inoculum 10^4 CFU/spot, 37° C., 24 hours. The method, then: as §1, §3
The test system of the next assay is Haemophilus influenzae. As to the kind of experiment: MIC, Mueller-Hinton broth, Haemophilus influenzae. Conditions: Mueller-Hinton broth with hemin and NAD, aerobic, 24 hours, 37° C., 5×10^4 CFU/well. On the procedure: as §1, §2

Converted amounts (≈) assume the structure as drawn.

For `Fc1cc(C2=NOC(Cn3ccnn3)C2)ccc1N1CCNCC1` (racemic) [Example 7, (5RS)-3-(3-Fluoro-4-piperazin-1-ylphenyl)-5-(1,2,3-triazol-1-yl-methyl)-4,5-dihydroisoxazole], the MIC with Streptococcus pneumoniae amounted to 1 mg/L (≈ 3.03 µM); in assay [1], 16 mg/L (≈ 48.4 µM); in the assay with Moraxella catarrhalis, 32 mg/L (≈ 96.9 µM); in the assay on Streptococcus pyogenes, 2 mg/L (≈ 6.05 µM); in assay [2], 8 mg/L (≈ 24.2 µM); in the assay on Haemophilus influenzae it was 32 mg/L (≈ 96.9 µM).

For the origin of these results see US7022705B2, “Isoxazoline derivatives useful as antimicrobials” (AstraZeneca AB, priority 2001, dated 2006).
